Measured values from patent US7511027B2, “Method of treating hepatitis delta virus infection” (Georgetown University, priority 2000, dated 2009).

Assays:
HDV [1] = details: in vitro; cited from earlier work
HDV [2] = test: Woodchuck model of chronic HDV infection: serum HDV RNA; type: in vivo
Method: (§1) The woodchuck was used as an experimental model of chronic HDV infection to assess the effect of L-FMAU treatment on HDV replication. Woodchucks chronically infected with WHV were infected with a woodchuck-adapted HDV inoculum derived from a laboratory infectious clone. Nine of eleven infected animals were determined to have chronic HDV infection, as defined by RT/PCR-detectable HDV viremia (Niro et al. (1997) Hepatology 25, 728-734) for at least 74% of bleed dates for at least 11 months prior to the initiation of treatment. The range of duration of viremia prior to the start of the study was 11.4-20 months; the range of positive bleed dates was 74% to 100%. Animals in the treatment group (4) were given 10 mg/kg L-FMAU daily; animals in the control group (5) were given placebo. Serum samples were obtained before the initiation of treatment, and at weeks 2, 4, 8, 12, 16 and 20. Serum samples were analyzed for WHV DNA, WHV surface antigen and HDV RNA.

WHV = test: Woodchuck model of chronic HDV infection: serum WHV DNA; type: in vivo
Method: as §1

WHV surface antigen = test: Woodchuck model of chronic HDV infection: serum WHV surface antigen; type: in vivo
Method: as §1

HDV [3] = details: in vivo; cited from earlier work
hepatocytes = details: cited from earlier work
[4] = one animal in the treated group, animal 4543

**Q.** With `Nc1nc2c(ncn2COCCO)c(=O)[nH]1` [Acyclovir] as the compound, how does the HDV replication (HDV [1]) read?
**A.** enhances

**Q.** For `Cc1cn([C@H]2O[C@@H](CO)[C@H](O)[C@H]2F)c(=O)[nH]c1=O` [L-FMAU, 2′-fluoro-5-methyl-β-L-arabinofuranosyl-uridine], which “HDV RNA in serum” value (HDV [2]; 10 mg/kg L-FMAU daily, by 16 weeks of treatment (FIG. 6A)) is on record?
**A.** undetectable in ¾ treated animals

**Q.** What about the “HDV viremia, animal 4543” value (HDV [2]; [4]) of the same compound?
**A.** remained high

**Q.** And the “serum HDV-RNA (FIG. 6A)” value (HDV [2]; over twenty weeks of treatment)?
**A.** significant decrease

**Q.** And the “mean serum HDV RNA” value (HDV [2]; woodchucks 4878, 4879, 4883, by 8 weeks of treatment vs start of treatment and vs five untreated animals (FIG. 8))?
**A.** dramatic decline

**Q.** What about the “decrease in serum WHV DNA” value (WHV; 10 mg/kg L-FMAU daily, by 4 weeks of treatment, all treated animals (FIG. 6B)) of the same compound?
**A.** > 10^7 fold

**Q.** And the “serum WHV-DNA (FIG. 6B)” value (WHV; over twenty weeks of treatment)?
**A.** significant decrease

**Q.** What about the “decrease in surface antigen levels” value (WHV surface antigen; 10 mg/kg L-FMAU daily, by 12 weeks, all but one (animal 4543) of the treated animals (FIG. 6C)) of the same compound?
**A.** ~1,000 fold

**Q.** And the “levels of surface antigen, animal 4543” value (WHV surface antigen; [4])?
**A.** did not exhibit decreased levels

**Q.** And the “serum WHsAg (FIG. 6C)” value (WHV surface antigen; over twenty weeks of treatment)?
**A.** significant decrease

**Q.** And the “surface antigen concentration after which HDV viremia became undetectable” value (WHV surface antigen; treated animals with decreased surface antigen, sustained for remainder of treatment)?
**A.** less than 1 microgram/mL

**Q.** And the “drop of WHsAg levels during treatment” value (WHV surface antigen; treated woodchucks 4878, 4879 and 4883)?
**A.** more than 100 fold

**Q.** Which side-effects (HDV [3]) does the source give for `NC(=O)c1ncn([C@@H]2O[C@H](CO)[C@@H](O)[C@H]2O)n1` [Ribavirin] here?
**A.** severe side-effects

**Q.** And the “virological or biochemical parameters” value (HDV [3])?
**A.** did not significantly affect

**Q.** For `Cc1ccc(C(=O)Nc2ccc(S(=O)(=O)O)c3cc(S(=O)(=O)O)cc(S(=O)(=O)O)c23)cc1NC(=O)c1cccc(NC(=O)Nc2cccc(C(=O)Nc3cc(C(=O)Nc4ccc(S(=O)(=O)O)c5cc(S(=O)(=O)O)cc(S(=O)(=O)O)c45)ccc3C)c2)c1` [suramin], which “entry of the virion into hepatocytes” value (hepatocytes) is on record?
**A.** blocks
